Measurements: BindingDB's records for doi:10.1021/jm9707232 (Sapienza University of Rome, 1998)

Biological target: Integrase (Human immunodeficiency virus 1, UniProt Q7ZJM1)
Assay: Compound concentration required to reduce HIV-1 Integrase 3'-processing activity by 50%

Chain of Integrase (Q7ZJM1 whole entry): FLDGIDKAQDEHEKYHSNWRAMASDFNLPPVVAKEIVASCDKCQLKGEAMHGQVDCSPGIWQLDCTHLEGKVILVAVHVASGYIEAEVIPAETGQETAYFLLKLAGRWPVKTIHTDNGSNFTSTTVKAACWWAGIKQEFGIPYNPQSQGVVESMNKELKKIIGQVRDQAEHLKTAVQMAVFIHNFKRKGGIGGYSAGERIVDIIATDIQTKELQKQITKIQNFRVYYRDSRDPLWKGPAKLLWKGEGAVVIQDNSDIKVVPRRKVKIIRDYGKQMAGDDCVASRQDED

Compound | IC50 [µM]
O=C(C=Cc1ccccc1)CC(=O)C=Cc1ccccc1 [5-Hydroxy-1,7-diphenylhepta-1,4,6-trien-3-one] | > 100
COc1ccc(C=CC(=O)CC(=O)C=Cc2ccc(OC)c(OC)c2)cc1OC [(1E,4Z,6E)-1,7-bis(3,4-dimethoxyphenyl)-5-hydroxyhepta-1,4,6-trien-3-one] | > 100
